The text below walks through data of US20240279236A1, “COMPOUNDS AND METHODS OF TREATING TUBERCULOSIS” (Fimbrion Therapeutics, Inc., priority 2021, published 2024).

The test relates to WT Mtb Erdman strain. Nature of the test: Microplate Alamar Blue Assay (MABA), Mtb growth inhibition. Type of test: cell-based, Mycobacterium tuberculosis. To be noted: Mycobacterium tuberculosis, ERDMAN, 168 h, Middlebrook 7H9 media, 7 days at 37° C. in 5% CO2. In general terms: The colour change of resazurin is a common sign of viable cells or microbes.

Turning to `CCc1nc(NCCCc2ccc3c(c2)CCO3)c2cc(C)sc2n1` [Example 256, N-(3-(2,3-dihydrobenzofuran-5-yl)propyl)-2-ethyl-6-methylthieno[2,3-d]pyrimidin-4-amine], the IC50 (in general, the concentration at which inhibition is half-maximal) worked out at 290 nM. `CCc1nc(NCCCc2ccc(Cl)cc2)c2cc(C)sc2n1` [Example 257, N-(3-(4-chlorophenyl)propyl)-2-ethyl-6-methylthieno[2,3-d]pyrimidin-4-amine] displayed a half-inhibitory concentration (IC50) of 140 nM. In the case of `CCc1nc(NCCCc2ccc3ccccc3c2)c2cc(C)sc2n1` [Example 258, 2-ethyl-6-methyl-N-(3-(naphthalen-2-yl)propyl)thieno[2,3-d]pyrimidin-4-amine] it was 190 nM.

In the case of `CCc1nc(NCCCc2cc(F)cc(C(F)(F)F)c2)c2cc(C)sc2n1` [Example 259, 2-ethyl-N-(3-(3-fluoro-5-(trifluoromethyl)phenyl)propyl)-6-methylthieno[2,3-d]pyrimidin-4-amine], the IC50 was 560 nM. In the case of `CCc1nc(NCCCc2ccc(OC)c(F)c2)c2cc(C)sc2n1` [Example 260, 2-ethyl-N-(3-(3-fluoro-4-methoxyphenyl)propyl)-6-methylthieno[2,3-d]pyrimidin-4-amine] it was 200 nM; in that of `CCc1nc(NCCCc2cc3ccccc3s2)c2cc(C)sc2n1` [Example 261, N-(3-(benzo[b]thiophen-2-yl)propyl)-2-ethyl-6-methylthieno[2,3-d]pyrimidin-4-amine], 280 nM; in that of `Cc1cc2c(NCCCc3ccc(-c4ccc(OC(F)(F)F)cc4)nc3)nc(C(F)(F)F)nc2s1` [Example 262, 6-methyl-N-(3-(6-(4-(trifluoromethoxy)phenyl)pyridin-3-yl)propyl)-2-(trifluoromethyl) thieno[2,3-d]pyrimidin-4-amine;], 470 nM. With `Cc1cc2c(NCCCc3ccc(-c4ccc(OC(F)(F)F)cc4)cc3)nc(-c3ccon3)nc2s1` [Example 263, 2-(isoxazol-3-yl)-6-methyl-N-(3-(4′-(trifluoromethoxy)-[1,1′-biphenyl]-4-yl)propyl)thieno [2,3-d]pyrimidin-4-amine], the midpoint of inhibition, the IC50, lay at 13 nM. The compound `Cc1cc(-c2nc(NCCCc3ccc(-c4ccc(OC(F)(F)F)cc4)cc3)c3cc(C)sc3n2)no1` [Example 264, 6-methyl-2-(5-methylisoxazol-3-yl)-N-(3-(4′-(trifluoromethoxy)-[1,1′-biphenyl]-4-yl)propyl)thieno [2,3-d]pyrimidin-4-amine] yielded a half-maximal inhibitory concentration (IC50) of 40 nM. Compared with the last compound, the IC50 is about 3.1-fold higher. In turn, `CCc1nc(NCCCc2ccc(-c3ccccc3)cc2)c2cc(C)sc2n1` [Example 265, N-(3-([1,1′-biphenyl]-4-yl)propyl)-2-ethyl-6-methylthieno[2,3-d]pyrimidin-4-amine] displayed a concentration for half-maximal inhibition (IC50) of 150 nM. This IC50 is about 3.8-fold higher than that of the compound before. Turning to `CCc1nc(NCCCc2ccc(-c3ccc(OC(F)(F)F)cc3)cc2)c2cc(C)sc2n1` [Example 266, 2-ethyl-6-methyl-N-(3-(4′-(trifluoromethoxy)-[1,1′-biphenyl]-4-yl)propyl)thieno [2,3-d]pyrimidin-4-amine], the midpoint of inhibition, the IC50, lay at 49 nM. `Cc1cc2c(NCCCc3ccc(-c4ccc(OC(F)(F)F)cc4)cc3)nc(C(F)(F)F)nc2s1` [Example 267, 6-methyl-N-(3-(4′-(trifluoromethoxy)-[1,1′-biphenyl]-4-yl)propyl)-2-(trifluoromethyl)-thieno[2,3-d]pyrimidin-4-amine] gave a half-inhibitory concentration (IC50) of 300 nM. `Cc1cc2c(NCCCc3ccc(-c4ccccc4)cc3)nc(C(F)(F)F)nc2s1` [Example 268, N-(3-([1,1′-biphenyl]-4-yl)propyl)-6-methyl-2-(trifluoromethyl) thieno[2,3-d]pyrimidin-4-amine] had an IC50 of 1200 nM. In the case of `CCc1nc(NCCCc2cccc(-c3ccc(OC(F)(F)F)cc3)c2)c2cc(C)sc2n1` [Example 269, 2-ethyl-6-methyl-N-(3-(4′-(trifluoromethoxy)-[1,1′-biphenyl]-3-yl)propyl)thieno [2,3-d]pyrimidin-4-amine] it was 1100 nM; in that of `CCc1nc(NCCCc2cccc(-c3ccccc3)c2)c2cc(C)sc2n1` [Example 270, N-(3-([1,1′-biphenyl]-3-yl)propyl)-2-ethyl-6-methylthieno[2,3-d]pyrimidin-4-amine], 520 nM; in that of `CCc1nc(NCCCc2ccc(-c3ccncc3)cc2)c2cc(C)sc2n1` [Example 271, 2-ethyl-6-methyl-N-(3-(4-(pyridin-4-yl)phenyl)propyl) thieno[2,3-d]pyrimidin-4-amine], 350 nM. `CCc1nc(NCCCc2ccc(-c3ccc(S(C)(=O)=O)cc3)cc2)c2cc(C)sc2n1` [Example 272, 2-ethyl-6-methyl-N-(3-(4′-(methylsulfonyl)-[1,1′-biphenyl]-4-yl)propyl)thieno [2,3-d]pyrimidin-4-amine]: the IC50 amounted to 270 nM.

As to `CCc1nc(NCCCc2ccc(-c3ccc(Cl)cc3)cc2)c2cc(C)sc2n1` [Example 273, N-(3-(4′-chloro-[1,1′-biphenyl]-4-yl)propyl)-2-ethyl-6-methylthieno[2,3-d]pyrimidin-4-amine], half-maximal inhibition (IC50) required 38 nM. Against the preceding compound, the IC50 is about 7.1-fold lower. With `CCc1nc(NCCCc2ccc(-c3ccc(OC)cc3)cc2)c2cc(C)sc2n1` [Example 274, 2-ethyl-N-(3-(4′-methoxy-[1,1′-biphenyl]-4-yl)propyl)-6-methylthieno[2,3-d]pyrimidin-4-amine], the IC50 stood at 76 nM.

On to `CCc1nc(NCCCc2ccc(-c3cccnc3)cc2)c2cc(C)sc2n1` [Example 275, 2-ethyl-6-methyl-N-(3-(4-(pyridin-3-yl)phenyl)propyl) thieno[2,3-d]pyrimidin-4-amine], for which the IC50 turned out to be 180 nM. This IC50 lies about 2.4-fold higher than the previous one. For `CCc1nc(NCCCc2ccc(-c3ccc(F)c(F)c3)cc2)c2cc(C)sc2n1` [Example 276, N-(3-(3′,4′-difluoro-[1,1′-biphenyl]-4-yl)propyl)-2-ethyl-6-methylthieno[2,3-d]pyrimidin-4-amine], the concentration for half-maximal inhibition (IC50) was determined as 930 nM. In the case of `CCc1nc(NCCCc2ccc(-c3ccc(NS(C)(=O)=O)cc3)cc2)c2cc(C)sc2n1` [Example 277, N-(4′-(3-((2-ethyl-6-methylthieno[2,3-d]pyrimidin-4-yl)amino)propyl)-[1,1′-biphenyl]-4-yl)methanesul-fonamide], the IC50 stood at 630 nM. In turn, `CCc1nc(NCCCc2ccc(-c3ccc(=O)[nH]c3)cc2)c2cc(C)sc2n1` [Example 278, 5-(4-(3-((2-ethyl-6-methylthieno[2,3-d]pyrimidin-4-yl)amino)propyl)phenyl)pyridin-2(1H)-one] yielded an IC50 of 710 nM. In the case of `CCc1nc(NCCCc2ccc(-c3ccc(NC(C)=O)cc3)cc2)c2cc(C)sc2n1` [Example 279, N-(4′-(3-((2-ethyl-6-methylthieno[2,3-d]pyrimidin-4-yl)amino)propyl)-[1,1′-biphenyl]-4-yl)acetamide] it was 1100 nM; in that of `CCc1nc(NCCCc2ccc(-c3cccc(OC(F)(F)F)c3)cc2)c2cc(C)sc2n1` [Example 280], 140 nM; in that of `CCc1nc(NCCCc2ccc(-c3ccc(Cl)c(Cl)c3)cc2)c2cc(C)sc2n1` [Example 281, N-(3-(3′,4′-dichloro-[1,1′-biphenyl]-4-yl)propyl)-2-ethyl-6-methylthieno[2,3-d]pyrimidin-4-amine], 44 nM. The compound `Cc1cc2c(NCCCc3ccc(-c4ccc(Cl)cc4)cc3)nc(C(F)(F)F)nc2s1` [Example 282, N-(3-(4′-chloro-[1,1′-biphenyl]-4-yl)propyl)-6-methyl-2-(trifluoromethyl) thieno[2,3-d]pyrimidin-4-amine] had an IC50 of 130 nM. Against the preceding compound, the IC50 is about 3-fold higher. In turn, `CCc1nc(NCCCc2ccc(-c3cccc(S(C)(=O)=O)c3)cc2)c2cc(C)sc2n1` [Example 283, 2-ethyl-6-methyl-N-(3-(3′-(methylsulfonyl)-[1,1′-biphenyl]-4-yl)propyl)thieno [2,3-d]pyrimidin-4-amine] showed an IC50 of 3200 nM. `CCc1nc(NCCCc2ccc(-c3cccc(C(=O)NC)c3)cc2)c2cc(C)sc2n1` [Example 284, 4′-(3-((2-ethyl-6-methylthieno[2,3-d]pyrimidin-4-yl)amino)propyl) N-methyl-[1,1′-biphenyl]-3-carboxamide] showed an IC50 of 2900 nM.

For the compound `Cc1cc2c(NCCCc3ccc(-c4ccc(OC(F)(F)F)cc4)cc3)nc(-c3ccc(OC(F)(F)F)cc3)nc2s1` [Example 285, 6-methyl-N-(3-(4′-(trifluoromethoxy)-[1,1′-biphenyl]-4-yl)propyl)-2-(4-(trifluoromethoxy)phenyl)thieno [2,3-d]pyrimidin-4-amine], the IC50 was > 10000 nM. `Cc1cc2c(NCCCc3ccc(-c4ccc(OC(F)(F)F)cc4)cc3)nc(-c3ccccn3)nc2s1` [Example 286, 6-methyl-2-(pyridin-2-yl)-N-(3-(4′-(trifluoromethoxy)-[1,1′-biphenyl]-4-yl)propyl)thieno [2,3-d]pyrimidin-4-amine] yielded an IC50 of 130 nM. That is a sub-micromolar value.

`Cc1cc2c(NCCCc3ccc(-c4ccc(F)c(F)c4)cc3)nc(C(F)(F)F)nc2s1` [Example 287, N-(3-(3′,4′-difluoro-[1,1′-biphenyl]-4-yl)propyl)-6-methyl-2-(trifluoromethyl) thieno[2,3-d]pyrimidin-4-amine] came in with an IC50 of 190 nM. The value for `COc1ccc(-c2ccc(CCCNc3nc(C(F)(F)F)nc4sc(C)cc34)cc2)cc1` [Example 288, N-(3-(4′-methoxy-[1,1′-biphenyl]-4-yl)propyl)-6-methyl-2-(trifluoromethyl) thieno[2,3-d]pyrimidin-4-amine] was 310 nM; that for `CSc1nc(NCCCc2ccc(-c3ccc(OC(F)(F)F)cc3)cc2)c2cc(C)sc2n1` [Example 289, 6-methyl-2-(methylthio)-N-(3-(4′-(trifluoromethoxy)-[1,1′-biphenyl]-4-yl)propyl)thieno [2,3-d]pyrimidin-4-amine] was 8 nM; that for `Cc1cc2c(NCCCc3ccc(-c4ccc(Cl)c(Cl)c4)cc3)nc(C(F)(F)F)nc2s1` [Example 290, N-(3-(3′,4′-dichloro-[1,1′-biphenyl]-4-yl)propyl)-6-methyl-2-(trifluoromethyl) thieno[2,3-d]pyrimidin-4-amine] was 390 nM. `Cc1cc2c(NCCCc3ccc(-c4ccc(OC(F)(F)F)cc4)cc3)nc(-c3ccoc3)nc2s1` [Example 291, 2-(furan-3-yl)-6-methyl-N-(3-(4′-(trifluoromethoxy)-[1,1′-biphenyl]-4-yl)propyl)thieno [2,3-d]pyrimidin-4-amine] showed an IC50 of 8 nM. Compared with the last compound, the IC50 is about 49-fold lower.
